Assay results taken from patent publication US20220409620A1, “REDUCING IMMUNOGENICITY TO PEGLOTICASE” (Horizon Pharma Rheumatology LLC, priority 2016, published 2022).

System: adult patients with uncontrolled gout
Experiment: Serum uric acid (sUA) levels and sUA responder rate, open-label study of pegloticase with MTX (MIRROR OL)
Assay type: in vivo, human
Conditions: mITT Population
Procedure: The primary objective is to estimate the response rate during Month 6 (Weeks 20, 22, and 24), as measured by the sustained normalization of serum uric acid (SUA) to <6 mg/dL for at least 80% of the time during Month 6 in subjects receiving KXX with MTX.
The primary efficacy outcome endpoint is the sustained normalization of SUA to <6 mg/dL for at least 80% of the time during month 6 (weeks 20, 22, and 24) in subjects receiving KXX with MTX. […] Participants who achieve this endpoint were classified as “responders.” Serum uric acid (SUA) responders may also be defined as participants achieving and maintaining SUA <6 mg/dL for at least 80% of the time during Month 6 (Weeks 20, 22, and 24).
Blood samples may be collected prior to each pegloticase infusion for measurement of SUA levels using the Beckman Coulter AU System Uric Acid procedure. Participants were declared “non-responders” if there were SUA measures >6 mg/dL at 2 consecutive study visits beginning with the week 2 visit. […] This assumption and subsequent discontinuation of pegloticase was consistent with the protocol of large phase III randomized controlled trials and the product label. A formal stopping rule was 2 occasions of SUA levels of greater than 6 mg/dL.
Clinical Chemistry—Blood samples were collected prior to each pegloticase infusion for measurement of SUA levels (primary efficacy parameter) using the Beckman Coulter AU System Uric Acid procedure. In this procedure uric acid is converted to hydrogen peroxide. Hydrogen peroxide reacts with reagent to produce a chromophore which is read bichromatically at 660/800 nm. The amount of dye formed is proportional to the uric acid concentration in the sample.
Serum samples for measurement of SUA levels were collected at the Screening Visit, the Week −4 Visit (prior to the first dose of MTX), and the Week −2 Visit during the MTX Run-in Period; within 48 hours prior to each pegloticase infusion and after the end of each pegloticase infusion prior to discharge from the site during the Pegloticase+IMM Period; at the non-infusion Week 52/End of Study/Early Termination Visits and at the Post Treatment 3 and 6 Month Follow-up Visits. Additional serum samples for SUA levels were collected at optional non-infusion (Frequent Sampling) Visits at Weeks 1 and 7. […] Subjects with SUA level >6 mg/dL at 2 consecutive visits beginning at Week 2 visit discontinued treatment, completed the End of Pegloticase Infusion Visit procedures within 2 weeks and continued the subject visits according to the protocol (without treatment).
Efficacy analyses were performed using the modified intention-to-treat (mITT) population, defined as all enrolled subjects who received ≥1 dose of pegloticase. The proportion of Month 6 responders was summarized, along with a 95% confidence interval for the proportion. The proportion of Month 3 and overall (Months 3 and 6 combined) responders was analyzed similarly.
A subject was declared a non-responder if the subject had SUA level >6 mg/dL at 2 consecutive study visits beginning with the Week 2 Visit. In addition, a subject who withdraws from study treatment for any reason after the first dose of pegloticase in the KXX+MTX Period and prior to Month 6 (for the primary endpoint) or Month 3 (for the secondary endpoint) was considered a non-responder if SUA values were not collected at the planned time points.
Patients were administered oral MTX (15 mg/week) and folate (1 mg/day) 4 weeks prior to the first pegloticase infusion (Day 1) and throughout the pegloticase treatment period. Blood was drawn prior to each infusion to measure sUA level, monitor clinical parameters, and examine for ADA development. All patients followed typical IR prophylaxis protocols (fexofenadine one day before and the morning of each infusion and acetaminophen and IV corticosteroid the morning of each infusion).

**Q.** How did the “Serum Uric Acid, Change from Baseline, Mean (SD)” value (shortened to “Serum Uric Acid, Change … (SD)”) (Week 20 - Post-Infusion) turn out when pegloticase was run?
**A.** The value was −8.97 (2.810) mg/dL.

**Q.** And the “Serum Uric Acid, Change from Baseline, Median” value (Week 20 - Post-Infusion)?
**A.** Its value is -8.80 mg/dL.

**Q.** What about the “Serum Uric Acid, Observed, Mean (SD)” value (Week 20 - Post-Infusion) of the same substance?
**A.** Its value is 0.30 (0.000) mg/dL.

**Q.** And the “Serum Uric Acid, Observed, Median” value (Week 20 - Post-Infusion)?
**A.** Its value is 0.30 mg/dL.

**Q.** What about the “sUA <6 mg/dL, n (%)” value (Week 20 - Post-Infusion) of the same substance?
**A.** The value was 11 (100%).

**Q.** And the “Serum Uric Acid, Change … (SD)” value (Week 20 - Pre-Infusion)?
**A.** The value was −8.97 (2.810) mg/dL.

**Q.** And the “Serum Uric Acid, Change from Baseline, Median” value (Week 20 - Pre-Infusion)?
**A.** Its value is -8.80 mg/dL.

**Q.** And the “Serum Uric Acid, Observed, Mean (SD)” value (Week 20 - Pre-Infusion)?
**A.** The value was 0.30 (0.000) mg/dL.

**Q.** And the “Serum Uric Acid, Observed, Median” value (Week 20 - Pre-Infusion)?
**A.** Its value is 0.30 mg/dL.

**Q.** What about the “sUA <6 mg/dL, n (%)” value (Week 20 - Pre-Infusion) of the same substance?
**A.** The value was 11 (100%).

**Q.** And the “Serum Uric Acid, Change … (SD)” value (Week 22 - Post-Infusion)?
**A.** Its value is −8.97 (2.810) mg/dL.

**Q.** What about the “Serum Uric Acid, Change from Baseline, Median” value (Week 22 - Post-Infusion) of the same substance?
**A.** Its value is -8.80 mg/dL.

**Q.** And the “Serum Uric Acid, Observed, Mean (SD)” value (Week 22 - Post-Infusion)?
**A.** The value was 0.30 (0.000) mg/dL.

**Q.** And the “Serum Uric Acid, Observed, Median” value (Week 22 - Post-Infusion)?
**A.** Its value is 0.30 mg/dL.

**Q.** What about the “sUA <6 mg/dL, n (%)” value (Week 22 - Post-Infusion) of the same substance?
**A.** The value was 11 (100%).

**Q.** And the “Serum Uric Acid, Change … (SD)” value (Week 22 - Pre-Infusion)?
**A.** The value was −8.97 (2.810) mg/dL.

**Q.** And the “Serum Uric Acid, Change from Baseline, Median” value (Week 22 - Pre-Infusion)?
**A.** The value was -8.80 mg/dL.

**Q.** What about the “Serum Uric Acid, Observed, Mean (SD)” value (Week 22 - Pre-Infusion) of the same substance?
**A.** The value was 0.30 (0.000) mg/dL.

**Q.** What about the “Serum Uric Acid, Observed, Median” value (Week 22 - Pre-Infusion) of the same substance?
**A.** The value was 0.30 mg/dL.

**Q.** What about the “sUA <6 mg/dL, n (%)” value (Week 22 - Pre-Infusion) of the same substance?
**A.** The value was 11 (100%).

**Q.** What about the “Serum Uric Acid, Change … (SD)” value (Week 24 - Post-Infusion) of the same substance?
**A.** The value was −9.18 (4.135) mg/dL.

**Q.** What about the “Serum Uric Acid, Change from Baseline, Median” value (Week 24 - Post-Infusion) of the same substance?
**A.** The value was -9.30 mg/dL.

**Q.** What about the “Serum Uric Acid, Observed, Mean (SD)” value (Week 24 - Post-Infusion) of the same substance?
**A.** The value was 0.30 (0.000) mg/dL.

**Q.** What about the “Serum Uric Acid, Observed, Median” value (Week 24 - Post-Infusion) of the same substance?
**A.** The value was 0.30 mg/dL.

**Q.** And the “sUA <6 mg/dL, n (%)” value (Week 24 - Post-Infusion)?
**A.** The value was 5 (100%).

**Q.** And the “Serum Uric Acid, Change … (SD)” value (Week 24 - Pre-Infusion)?
**A.** The value was −8.97 (2.810) mg/dL.

**Q.** What about the “Serum Uric Acid, Change from Baseline, Median” value (Week 24 - Pre-Infusion) of the same substance?
**A.** The value was -8.80 mg/dL.

**Q.** And the “Serum Uric Acid, Observed, Mean (SD)” value (Week 24 - Pre-Infusion)?
**A.** Its value is 0.30 (0.000) mg/dL.

**Q.** What about the “Serum Uric Acid, Observed, Median” value (Week 24 - Pre-Infusion) of the same substance?
**A.** The value was 0.30 mg/dL.

**Q.** And the “sUA <6 mg/dL, n (%)” value (Week 24 - Pre-Infusion)?
**A.** Its value is 11 (100%).

**Q.** And the “Serum Uric Acid, Change … (SD)” value (Week 26 - Pre-Infusion)?
**A.** The value was −9.11 (3.293) mg/dL.

**Q.** What about the “Serum Uric Acid, Change from Baseline, Median” value (Week 26 - Pre-Infusion) of the same substance?
**A.** Its value is -8.95 mg/dL.

**Q.** What about the “Serum Uric Acid, Observed, Mean (SD)” value (Week 26 - Pre-Infusion) of the same substance?
**A.** The value was 0.30 (0.000) mg/dL.

**Q.** What about the “Serum Uric Acid, Observed, Median” value (Week 26 - Pre-Infusion) of the same substance?
**A.** Its value is 0.30 mg/dL.

**Q.** What about the “sUA <6 mg/dL, n (%)” value (Week 26 - Pre-Infusion) of the same substance?
**A.** The value was 8 (100%).

**Q.** And the “Serum Uric Acid, Change … (SD)” value (Week 28 - Pre-Infusion)?
**A.** The value was −9.11 (3.293) mg/dL.

**Q.** And the “Serum Uric Acid, Change from Baseline, Median” value (Week 28 - Pre-Infusion)?
**A.** Its value is -8.95 mg/dL.

**Q.** And the “Serum Uric Acid, Observed, Mean (SD)” value (Week 28 - Pre-Infusion)?
**A.** Its value is 0.30 (0.000) mg/dL.

**Q.** What about the “Serum Uric Acid, Observed, Median” value (Week 28 - Pre-Infusion) of the same substance?
**A.** Its value is 0.30 mg/dL.

**Q.** What about the “sUA <6 mg/dL, n (%)” value (Week 28 - Pre-Infusion) of the same substance?
**A.** The value was 8 (100%).

**Q.** And the “Serum Uric Acid, Change … (SD)” value (Week 30 - Pre-Infusion)?
**A.** The value was −9.11 (3.293) mg/dL.

**Q.** What about the “Serum Uric Acid, Change from Baseline, Median” value (Week 30 - Pre-Infusion) of the same substance?
**A.** Its value is -8.95 mg/dL.

**Q.** What about the “Serum Uric Acid, Observed, Mean (SD)” value (Week 30 - Pre-Infusion) of the same substance?
**A.** The value was 0.30 (0.000) mg/dL.

**Q.** And the “Serum Uric Acid, Observed, Median” value (Week 30 - Pre-Infusion)?
**A.** The value was 0.30 mg/dL.

**Q.** And the “sUA <6 mg/dL, n (%)” value (Week 30 - Pre-Infusion)?
**A.** The value was 8 (100%).

**Q.** What about the “Serum Uric Acid, Change … (SD)” value (Week 32 - Post-Infusion) of the same substance?
**A.** The value was −9.11 (3.293) mg/dL.

**Q.** And the “Serum Uric Acid, Change from Baseline, Median” value (Week 32 - Post-Infusion)?
**A.** Its value is -8.95 mg/dL.

**Q.** And the “Serum Uric Acid, Observed, Mean (SD)” value (Week 32 - Post-Infusion)?
**A.** Its value is 0.30 (0.000) mg/dL.

**Q.** What about the “Serum Uric Acid, Observed, Median” value (Week 32 - Post-Infusion) of the same substance?
**A.** Its value is 0.30 mg/dL.

**Q.** What about the “sUA <6 mg/dL, n (%)” value (Week 32 - Post-Infusion) of the same substance?
**A.** The value was 8 (100%).

**Q.** What about the “Serum Uric Acid, Change … (SD)” value (Week 32 - Pre-Infusion) of the same substance?
**A.** The value was −8.99 (2.961) mg/dL.

**Q.** And the “Serum Uric Acid, Change from Baseline, Median” value (Week 32 - Pre-Infusion)?
**A.** Its value is -8.95 mg/dL.

**Q.** What about the “Serum Uric Acid, Observed, Mean (SD)” value (Week 32 - Pre-Infusion) of the same substance?
**A.** The value was 0.30 (0.000) mg/dL.

**Q.** And the “Serum Uric Acid, Observed, Median” value (Week 32 - Pre-Infusion)?
**A.** Its value is 0.30 mg/dL.

**Q.** What about the “sUA <6 mg/dL, n (%)” value (Week 32 - Pre-Infusion) of the same substance?
**A.** The value was 10 (100%).

**Q.** And the “Serum Uric Acid, Change … (SD)” value (Week 34 - Post-Infusion)?
**A.** Its value is −9.11 (3.293) mg/dL.

**Q.** And the “Serum Uric Acid, Change from Baseline, Median” value (Week 34 - Post-Infusion)?
**A.** The value was -8.95 mg/dL.

**Q.** And the “Serum Uric Acid, Observed, Mean (SD)” value (Week 34 - Post-Infusion)?
**A.** The value was 0.30 (0.000) mg/dL.

**Q.** And the “Serum Uric Acid, Observed, Median” value (Week 34 - Post-Infusion)?
**A.** The value was 0.30 mg/dL.

**Q.** And the “sUA <6 mg/dL, n (%)” value (Week 34 - Post-Infusion)?
**A.** The value was 8 (100%).

**Q.** And the “Serum Uric Acid, Change … (SD)” value (Week 34 - Pre-Infusion)?
**A.** The value was −8.47 (3.248) mg/dL.

**Q.** And the “Serum Uric Acid, Change from Baseline, Median” value (Week 34 - Pre-Infusion)?
**A.** The value was -7.95 mg/dL.
